ChEMBL document CHEMBL5143697, “Phenethoxy Derivatives with Anti-inflammatory Activities from the Betelnut Endophytic Trichoderma asperellum G10” (J Nat Prod, 2022)

Tested on: RAW264.7
Assay: Antiinflammatory activity against mouse RAW264.7 cells assessed as inhibition of LPS-induced NO production preincubated for 1 hr followed by LPS stimulation and measured after 36 hrs by Griess reagent based assay
Assay type: functional, cell-based

An IC50 of 48.3 µM was found for C[C@@H]1[C@H](OCCc2ccccc2)O[C@H](C)[C@H]1CO in this work.
